Measurements published in ChEMBL document CHEMBL3763155 (Bioorg Med Chem Lett, 2016).

Columns and labels:
[1] = Displacement of 125I-[Sar1,Leu8] angiotensin-2 from rat type 1 angiotensin-2 receptor expressed in African green monkey COS7 cells after 24 hrs; assay type: cell-based; conditions: cos-7
[2] = biological target: T1, Type-2 angiotensin II receptor (Homo sapiens, UniProt P50052); test: Binding affinity to type-2 angiotensin-2 receptor (unknown origin)
T1 sequence (P50052 whole entry): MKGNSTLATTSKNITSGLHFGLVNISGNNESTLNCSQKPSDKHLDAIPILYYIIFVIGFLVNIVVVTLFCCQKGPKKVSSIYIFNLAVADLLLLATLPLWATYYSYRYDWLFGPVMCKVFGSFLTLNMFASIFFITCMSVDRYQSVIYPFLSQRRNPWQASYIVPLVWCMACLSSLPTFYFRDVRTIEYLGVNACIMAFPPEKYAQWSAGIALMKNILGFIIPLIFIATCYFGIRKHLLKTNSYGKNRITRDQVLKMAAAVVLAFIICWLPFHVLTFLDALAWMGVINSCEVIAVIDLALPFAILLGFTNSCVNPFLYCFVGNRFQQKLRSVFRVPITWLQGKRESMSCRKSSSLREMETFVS

IC50 [1] | Ki [2] | SMILES | Ki [1]
1.5 nM | – | CCCCOC(=O)NS(=O)(=O)c1ccc(CCC)cc1-c1ccc(Cn2c(CC)nc3c(C)cc(C)nc32)cc1 | –
– | > 10000 nM | CCOc1nc2cccc(C(=O)O)c2n1Cc1ccc(-c2ccccc2-c2nnn[nH]2)cc1 | 0.17 nM
2.1 nM | – | CCCCOC(=O)NS(=O)(=O)c1ccc(CC(C)C)cc1-c1ccc(Cn2c(CC)nc3c(C)cc(C)nc32)cc1 | –
– | – | COc1ccc2c(c1OCc1ccccc1)C[C@@H](C(=O)O)N(C(=O)C(c1ccccc1)c1ccccc1)C2 [OLODANRIGAN] | 409 nM
12.1 nM | – | CCCCc1nc(Cl)c(CO)n1Cc1ccc(-c2ccccc2-c2nnn[nH]2)cc1 [LOSARTAN] | –
– | – | CCCCOC(=O)NS(=O)(=O)c1sc(CC(C)C)cc1-c1ccc(Cn2ccnc2)cc1 [BULOXIBUTID] | > 10000 nM
– | – | CC[C@H](C)[C@H](NC(=O)[C@H](Cc1ccc(O)cc1)NC(=O)[C@@H](NC(=O)[C@H](CCCNC(=N)N)NC(=O)[C@@H](N)CC(=O)O)C(C)C)C(=O)N[C@@H](Cc1cnc[nH]1)C(=O)N1CCC[C@H]1C(=O)N[C@@H](Cc1ccccc1)C(=O)O [ANGIOTENSIN II] | 0.95 nM
